Target: Helios (IKZF2) (Homo sapiens, UniProt Q96SW2+Q9UKS7)
Assay: Screening of Helios protein degraders using Nano-Glo HiBiT cell line (HiBiT-IKZF2)
Type: cell-based
Conditions: for remaining activity at 1 µM: compound 1 μM, read-out: HiBiT-IKZF2 Residual amount of Helios (%) 1 μM; for remaining activity at 1 µM / remaining activity at 10 µM: 6 hours, HiBiT-Helios knock-in Jurkat cells; for remaining activity at 10 µM: compound 10 μM, read-out: HiBiT-IKZF2 Residual amount of Helios (%) 10 μM
Description: To observe intracellular degradation of Helios, the Nano-Glo HiBiT detection system (Promega) was employed. […] The cells expressing Helios fused with HiBiT were validated using the Nano-Glo HiBiT detection system (Promega) according to a predetermined protocol, isolated as single cells, and cultured in complete medium to establish a monoclonal cell line.
After 6 hours, the Nano-Glo HiBiT detection reagent was added to each well in an equal volume to the cell culture medium and incubated at room temperature for 10 minutes. Following incubation, the HiBiT luminescence signal was measured using a microplate reader (Perkin Elmer).

Chain of Helios (IKZF2) (Q9UKS7 whole entry): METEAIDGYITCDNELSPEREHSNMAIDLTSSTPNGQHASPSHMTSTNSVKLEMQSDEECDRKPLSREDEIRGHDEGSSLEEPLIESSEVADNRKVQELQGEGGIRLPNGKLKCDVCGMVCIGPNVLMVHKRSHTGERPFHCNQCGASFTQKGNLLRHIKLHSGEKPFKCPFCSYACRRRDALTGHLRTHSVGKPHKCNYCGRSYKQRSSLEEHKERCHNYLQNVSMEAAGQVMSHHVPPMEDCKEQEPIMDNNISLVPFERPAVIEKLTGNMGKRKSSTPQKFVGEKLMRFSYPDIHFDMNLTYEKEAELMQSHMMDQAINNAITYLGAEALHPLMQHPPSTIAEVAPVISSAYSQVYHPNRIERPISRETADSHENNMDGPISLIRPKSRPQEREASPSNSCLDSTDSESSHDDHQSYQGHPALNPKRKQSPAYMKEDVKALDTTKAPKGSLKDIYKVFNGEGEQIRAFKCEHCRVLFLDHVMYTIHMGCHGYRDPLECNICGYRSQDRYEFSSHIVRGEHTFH
Chain of Helios (IKZF2) (Q96SW2 whole entry): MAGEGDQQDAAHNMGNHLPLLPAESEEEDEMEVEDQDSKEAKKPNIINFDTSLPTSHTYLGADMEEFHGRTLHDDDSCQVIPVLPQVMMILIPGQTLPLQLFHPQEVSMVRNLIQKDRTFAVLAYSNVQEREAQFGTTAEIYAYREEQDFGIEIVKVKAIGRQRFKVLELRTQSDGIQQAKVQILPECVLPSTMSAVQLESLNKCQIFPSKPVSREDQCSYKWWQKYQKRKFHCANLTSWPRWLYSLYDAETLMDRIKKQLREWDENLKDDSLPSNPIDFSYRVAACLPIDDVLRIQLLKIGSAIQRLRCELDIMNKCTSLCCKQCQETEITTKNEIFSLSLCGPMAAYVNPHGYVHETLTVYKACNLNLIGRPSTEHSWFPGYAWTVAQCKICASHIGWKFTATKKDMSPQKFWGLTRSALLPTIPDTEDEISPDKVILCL
Chain of Helios (IKZF2) (Q16531 whole entry partner): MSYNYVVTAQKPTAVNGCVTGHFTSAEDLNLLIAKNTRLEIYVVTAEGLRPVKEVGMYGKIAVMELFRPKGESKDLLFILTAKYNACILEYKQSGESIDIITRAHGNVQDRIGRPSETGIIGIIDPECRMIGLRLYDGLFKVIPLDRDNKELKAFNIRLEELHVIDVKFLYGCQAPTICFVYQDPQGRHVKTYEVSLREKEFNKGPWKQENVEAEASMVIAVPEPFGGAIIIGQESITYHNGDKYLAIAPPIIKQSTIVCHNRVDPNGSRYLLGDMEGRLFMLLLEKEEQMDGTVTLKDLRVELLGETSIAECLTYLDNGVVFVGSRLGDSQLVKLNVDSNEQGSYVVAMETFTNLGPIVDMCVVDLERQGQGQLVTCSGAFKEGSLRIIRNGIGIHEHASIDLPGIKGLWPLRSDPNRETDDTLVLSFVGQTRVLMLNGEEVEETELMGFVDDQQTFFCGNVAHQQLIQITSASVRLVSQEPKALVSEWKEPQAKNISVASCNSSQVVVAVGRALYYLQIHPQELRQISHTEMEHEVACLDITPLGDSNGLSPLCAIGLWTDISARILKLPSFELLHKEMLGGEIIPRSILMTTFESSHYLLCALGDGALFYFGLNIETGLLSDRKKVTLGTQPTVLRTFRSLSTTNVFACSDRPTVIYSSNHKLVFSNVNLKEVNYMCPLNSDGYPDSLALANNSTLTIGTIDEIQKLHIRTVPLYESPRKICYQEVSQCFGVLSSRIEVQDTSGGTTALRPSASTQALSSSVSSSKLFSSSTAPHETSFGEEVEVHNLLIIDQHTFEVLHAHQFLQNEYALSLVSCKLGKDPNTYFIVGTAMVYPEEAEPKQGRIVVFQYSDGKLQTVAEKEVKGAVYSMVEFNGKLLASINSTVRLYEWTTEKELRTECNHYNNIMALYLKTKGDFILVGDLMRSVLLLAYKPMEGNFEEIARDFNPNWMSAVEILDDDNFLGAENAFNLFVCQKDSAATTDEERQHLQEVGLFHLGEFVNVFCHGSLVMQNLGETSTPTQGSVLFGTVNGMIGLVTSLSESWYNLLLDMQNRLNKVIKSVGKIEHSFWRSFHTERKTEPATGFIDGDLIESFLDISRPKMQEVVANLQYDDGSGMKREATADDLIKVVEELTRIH

remaining activity at 1 µM | remaining activity at 10 µM | IKZF2 degradation activity (in words, comment on Table 1) (as shown in Table 1) | Compound
26.8% | 20.6% | – | Cc1cc2c(C)c(C(=O)N3CCC(c4ccc5c(c4)CN(C4CCC(=O)NC4=O)C5=O)CC3)[nH]c2cc1Cl (centres unmarked) [Compound 103, 3-(5-(1-(6-chloro-3,5-dimethyl-1H-indole-2-carbonyl)piperidin-4-yl)-1-oxoinsoindolin-2-yl)piperidine-2,6-dione]
58.1% | 47.4% | – | O=C1CCC(N2Cc3cc(C4CCN(C(=O)c5cc6cnc(Cl)cc6[nH]5)CC4)ccc3C2=O)C(=O)N1 (centres unmarked) [Compound 46, 3-(5-(1-(6-chloro-1H-picolo[3,2-c]pyridine-2-carbonyl)piperidin-4-yl)-1-oxoinsoindolin-2-yl)piperidine-2,6-dione]
– | 11.2% | – | Cc1c(C(=O)N2CCC(c3ccc4c(c3F)CN(C3CCC(=O)NC3=O)C4=O)CC2)[nH]c2c(F)c(C#N)ccc12 (centres unmarked) [Compound 122, 2-(4-(2-(2,6-dioxopiperidin-3-yl)-4-fluoro-1-oxoindolin-5-yl)piperidine-1-carbonyl)-7-fluoro-3-methyl-1H-indole-6-carbonitrile]
43.3% | 34.3% | – | Cc1c(C(=O)N2CCC(c3ccc4c(c3)CN(C3CCC(=O)NC3=O)C4=O)CC2)[nH]c2cc(Cl)c(Cl)cc12 (centres unmarked) [Compound 72, 3-(5-(1-(5,6-dichloro-3-methyl-1H-indole-2-carbonyl)piperidin-4-yl)-1-oxoinsoindolin-2-yl)piperidine-2,6-dione]
– | 30.7% | excellent IKZF2 degradation activity | Cc1c(C(=O)N2CC(N3CCC(c4ccc5c(c4)CN(C4CCC(=O)NC4=O)C5=O)CC3)C2)[nH]c2cc(Cl)ccc12 (centres unmarked) [Compound 63, 3-(5-(1-(1-(6-chloro-3-methyl-1H-indole-2-carbonyl)azetidin-3-yl)piperidin-4-yl)-1-oxoinsoindolin-2-yl)piperidine-2,6-dione]
22.7% | 15.7% | – | Cc1c(C(=O)N2CCC(C#Cc3ccc4c(c3)CN(C3CCC(=O)NC3=O)C4=O)CC2)[nH]c2cc(Cl)ccc12 (centres unmarked) [Compound 43, 3-(5-((1-(6-chloro-3-methyl-1H-indole-2-carbonyl)piperidin-4-yl)ethynyl)-1-oxoinsoindolin-2-yl)piperidine-2,6-dione]
31.8% | – | – | CN1CCN(Cc2c(C(=O)N3CCC(c4ccc5c(c4)CN(C4CCC(=O)NC4=O)C5=O)CC3)[nH]c3cc(Cl)ccc23)CC1 (centres unmarked) [Compound 114, 3-(5-(1-(6-chloro-3-((4-methylpiperazin-1-yl)methyl)-1H-indole-2-carbonyl)piperidin-4-yl)-1-oxoinsoindolin-2-yl)piperidine-2,6-dione]
– | 76.6% | – | N#Cc1c(C(=O)N2CCC(c3ccc4c(c3)CN(C3CCC(=O)NC3=O)C4=O)CC2)[nH]c2ccccc12 (centres unmarked) [Compound 51, 2-(4-(2-(2,6-dioxopiperidin-3-yl)-1-oxoindolin-5-yl)piperidine-1-carbonyl)-1H-indole-3-carbonitrile]

More lines, now with the values behind:

Compound | remaining activity at 1 µM | remaining activity at 10 µM | IKZF2 degradation activity (in words, comment on Table 1) (as shown in Table 1)
Cc1c(C(=O)N2CCC(c3ccc4c(c3)CN(C3CCC(=O)NC3=O)C4=O)CC2)[nH]c2ncccc12 (centres unmarked) [Compound 31, 3-(5-(1-(3-methyl-1H-picolo[2,3-b]pyridine-2-carbonyl)piperidin-4-yl)-1-oxoinsoindolin-2-yl)piperidine-2,6-dione] | 75% | 94.3% | –
O=C1CCC(N2Cc3cc(C=C4CCN(C(=O)c5cc6ccccc6[nH]5)CC4)ccc3C2=O)C(=O)N1 (centres unmarked) [Compound 24, 3-(5-((1-(1H-indole-2-carbonyl)piperidin-4-ylidene)methyl)-1-oxoinsoindolin-2-yl)piperidine-2,6-dione] | 93.7% | 88.2% | –
O=C1CCC(N2Cc3cc(C4CCN(C(=O)c5c[nH]c6cc(Cl)ccc56)CC4)ccc3C2=O)C(=O)N1 (centres unmarked) [Comparative Substance 2, 3-(5-(1-(6-chloro-1H-indole-3-carbonyl)piperidin-4-yl)-1-oxoinsoindolin-2-yl)piperidine-2,6-dione, reference compound] | – | 100% | –
O=C1CCC(N2Cc3cc(C4CC5CCC(C4)N5C(=O)c4cc5ccc(Cl)cc5[nH]4)ccc3C2=O)C(=O)N1 (centres unmarked) [Compound 57, 3-(5-(8-(6-chloro-1H-indole-2-carbonyl)-8-azabicyclo[3.2.1]octan-3-yl)-1-oxoinsoindolin-2-yl)piperidine-2,6-dione] | – | 64.5% | –
COc1cc2cc(C(=O)N3CCC(c4ccc5c(c4)CN(C4CCC(=O)NC4=O)C5=O)CC3)[nH]c2cc1OC (centres unmarked) [Compound 40, 3-(5-(1-(5,6-dimethoxy-1H-indole-2-carbonyl)piperidin-4-yl)-1-oxoinsoindolin-2-yl)piperidine-2,6-dione] | 92.2% | 74.5% | –
O=C1CCC(N2Cc3cc(C4CCN(C(=O)c5cc6ccc(Cl)c(Cl)c6[nH]5)CC4)ccc3C2=O)C(=O)N1 (centres unmarked) [Compound 2, 3-(5-(1-(6,7-dichloro-1H-indole-2-carbonyl)piperidin-4-yl)-1-oxoinsoindolin-2-yl)piperidine-2,6-dione] | 78.3% | 92.1% | –
O=C1CCC(N2Cc3cc(C4CCN(C(=O)c5cc6cccc(Cl)c6[nH]5)CC4)ccc3C2=O)C(=O)N1 (centres unmarked) [Compound 8, 3-(5-(1-(7-chloro-1H-indole-2-carbonyl)piperidin-4-yl)-1-oxoinsoindolin-2-yl)piperidine-2,6-dione] | 99.5% | 109% | –
O=C1CCC(N2Cc3cc(C4CCN(C(=O)C5=Nc6cccc(Cl)c6C5)CC4)ccc3C2=O)C(=O)N1 (centres unmarked) [Compound 4, 3-(5-(1-(4-chloro-1H-indole-2-carbonyl)piperidin-4-yl)-1-oxoinsoindolin-2-yl)piperidine-2,6-dione] | 104% | 106% | –
Cc1c(C(=O)N2CCC(c3ccc4c(c3)CN(C3CCC(=O)NC3=O)C4=O)CC2)[nH]c2ccccc12 (centres unmarked) [Compound 21, 3-(5-(1-(3-methyl-1H-indole-2-carbonyl)piperidin-4-yl)-1-oxoinsoindolin-2-yl)piperidine-2,6-dione] | 37% | 37.3% | –
COc1cccc2[nH]c(C(=O)N3CCC(c4ccc5c(c4)CN(C4CCC(=O)NC4=O)C5=O)CC3)cc12 (centres unmarked) [Compound 11, 3-(5-(1-(4-methoxy-1H-indole-2-carbonyl)piperidin-4-yl)-1-oxoinsoindolin-2-yl)piperidine-2,6-dione] | 99.5% | 98% | –
O=C1CCC(N2Cc3cc(C4CCN(C(=O)c5cc6cc(Cl)ccc6[nH]5)CC4)ccc3C2=O)C(=O)N1 (centres unmarked) [Compound 3, 3-(5-(1-(5-chloro-1H-indole-2-carbonyl)piperidin-4-yl)-1-oxoinsoindolin-2-yl)piperidine-2,6-dione] | 102% | 106% | –
Cc1c(C(=O)N2CCC(c3ccc4c(c3)CN(C3CCC(=O)NC3=O)C4=O)CC2)[nH]c2ccc(Cl)cc12 (centres unmarked) [Compound 38, 3-(5-(1-(5-chloro-3-methyl-1H-indole-2-carbonyl)piperidin-4-yl)-1-oxoinsoindolin-2-yl)piperidine-2,6-dione] | 80% | 65.1% | –

Reference: patent US20260216164A1, “INDOLE COMPOUND DECOMPOSING IKZF2, AND USE THEREOF” (KOREA RESEARCH INSTITUTE OF CHEMICAL TECHNOLOGY, priority 2023, published 2026)
